One test concerns the target Human recombinant PDE4B2 (Homo sapiens (Human), UniProt Q07343). The experiment in a line: PDE4B2 HTRF assay. Format: biochemical. Here is the method: PDE4B2 activity is detected using the LANCE Ultra cAMP homogeneous time resolved fluorescence resonance energy transfer (TR-FRET) assay from Perkin Elmer. The assay is based on the competition between the europium (Eu) chelate-labeled cAMP tracer and sample cAMP for binding sites on cAMP-specific monoclonal antibodies (mAb) labelled with the ULight™ dye. The assay is carried out in 384-well low volume plates in a volume of 10 μl. Human recombinant PDE4B2 (80 pM) is incubated for 2 h with 3 nM cAMP in buffer containing 1×HBSS, 5 mM HEPES, 3 mM MgCl2, 0.1% BSA, pH 7.4 with or without test compounds. The enzymatic reactions are efficiently stopped by the addition of 500 μM IBMX present in the combined Stop/Detection buffer containing europium (Eu) chelate-labeled cAMP tracer and cAMP-specific monoclonal antibodies (mAb) labelled with the ULight™ dye. […] IC50 values are determined from competition curves using a non-linear curve fitting program.
(In general: Time-resolved FRET reads energy transfer from a long-lived donor to a nearby acceptor.)

In test [1] the target is Human M3 receptor membranes (Homo sapiens (Human), UniProt P20309). The experiment in a line: M3 Receptor radioligand binding assay. Here is the method: M3 Receptor Radioligand Binding Assay:
The assay is carried out in 96-well polypropylene plates in a volume of 250 μl. […] The final assay concentration of DMSO is 0.5% (v/v). The plates are sealed and incubated for 2 h at room temperature on an orbital shaker (slow speed). Membranes are harvested onto 96-well unifilter GF/C filter plates pre-treated with 0.5% polyethyleneimine (v/v), using a filter manifold, washed four times with 200 μl of assay buffer. The plates are dried before addition of 50 μl of microscint-0, sealed then read in a Trilux Microbeta scintillation counter. IC50 values are determined from competition curves using a non-linear curve fitting program. Ki values are calculated from IC50 values by the Cheng and Prusoff equation.

Setting [2] is: M3 Receptor radioligand binding assay, read-out: M3 IC50 activity.
The mark [3] stands for this setting: PDE4B2 HTRF assay, read-out: PDE4B2 IC50 activity.

Like-named read-outs stand apart in the source and are kept apart here. A value given as a limit tells only on which side of the number the result lay.

Chain of Human M3 receptor membranes (P20309 whole entry): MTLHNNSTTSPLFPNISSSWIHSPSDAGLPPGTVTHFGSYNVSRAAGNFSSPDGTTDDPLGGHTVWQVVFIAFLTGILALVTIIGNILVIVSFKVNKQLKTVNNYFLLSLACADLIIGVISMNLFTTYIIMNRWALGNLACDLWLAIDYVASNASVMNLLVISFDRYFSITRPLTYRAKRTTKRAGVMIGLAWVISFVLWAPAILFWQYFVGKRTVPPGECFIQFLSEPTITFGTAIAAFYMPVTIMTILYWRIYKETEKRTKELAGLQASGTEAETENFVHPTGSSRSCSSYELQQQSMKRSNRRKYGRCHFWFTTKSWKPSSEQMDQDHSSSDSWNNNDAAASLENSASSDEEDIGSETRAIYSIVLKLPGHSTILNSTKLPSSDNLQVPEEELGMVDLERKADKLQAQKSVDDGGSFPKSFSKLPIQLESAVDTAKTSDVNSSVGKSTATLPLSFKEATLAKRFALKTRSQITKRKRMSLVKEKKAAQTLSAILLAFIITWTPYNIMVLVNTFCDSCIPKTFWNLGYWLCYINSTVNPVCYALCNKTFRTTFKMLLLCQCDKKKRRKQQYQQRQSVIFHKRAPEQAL
Chain of Human recombinant PDE4B2 (Q07343 other isoform, or with tags, fused parts or gaps): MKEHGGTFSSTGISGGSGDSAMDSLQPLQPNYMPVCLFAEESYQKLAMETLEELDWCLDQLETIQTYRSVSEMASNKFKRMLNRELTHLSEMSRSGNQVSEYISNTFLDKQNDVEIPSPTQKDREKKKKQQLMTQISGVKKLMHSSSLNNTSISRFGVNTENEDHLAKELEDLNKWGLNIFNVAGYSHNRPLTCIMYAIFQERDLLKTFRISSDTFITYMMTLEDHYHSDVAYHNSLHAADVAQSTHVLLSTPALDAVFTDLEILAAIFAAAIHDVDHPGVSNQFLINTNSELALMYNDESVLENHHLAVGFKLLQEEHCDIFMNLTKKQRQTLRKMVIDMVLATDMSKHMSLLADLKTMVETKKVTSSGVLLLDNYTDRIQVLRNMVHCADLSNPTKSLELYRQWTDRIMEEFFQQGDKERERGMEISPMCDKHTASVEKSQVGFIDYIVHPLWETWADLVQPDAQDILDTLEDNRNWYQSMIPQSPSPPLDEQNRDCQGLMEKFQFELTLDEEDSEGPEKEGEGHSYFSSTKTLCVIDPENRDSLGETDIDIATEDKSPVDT

Broadly, the IC50 is the midpoint of a concentration-inhibition curve. Consider `COc1ccc([C@H](Cc2c(Cl)c[n+]([O-])cc2Cl)OC(=O)c2ccc(CNC(C(=O)OCC3CCN(C)CC3)C3CCCCC3)s2)cc1OC` (stereo partly drawn) [Example 9, [(1S)-2-(3,5-dichloro-1-oxido-pyridin-1-ium-4-yl)-1-(3,4-dimethoxyphenyl)ethyl]5-[[[1-cyclohexyl-2-[(1-methyl-4-piperidyl)methoxy]-2-oxo-ethyl]amino]methyl]thiophene-2-carboxylate], for which the half-inhibitory concentration (IC50) on Human recombinant PDE4B2 (read-out: PDE4B2 IC50 activity) lay in the range of 1 to 10 nM; in test [1] (setting [2]) it was 10 to 100 nM.

In the case of `COc1ccc([C@H](Cc2c(Cl)c[n+]([O-])cc2Cl)OC(=O)c2ccc(CNC(C(=O)OC[C@@H]3CCCN(C)C3)c3ccccc3)s2)cc1OC` (stereo partly drawn) [Example 14, [(1S)-2-(3,5-dichloro-1-oxido-pyridin-1-ium-4-yl)-1-(3,4-dimethoxyphenyl)ethyl]5-[[[2-[[(3R)-1-methyl-3-piperidyl]methoxy]-2-oxo-1-phenyl-ethyl]amino]methyl]thiophene-2-carboxylate], the concentration for half-maximal inhibition (IC50) (at Human recombinant PDE4B2 (setting [3]); in test [1] (setting [2])) was 1 to 10 nM each time.

With `COc1ccc([C@H](Cc2c(Cl)c[n+]([O-])cc2Cl)OC(=O)c2ccc(CNC(C(=O)OC[C@@H]3CCN(C)C3)c3ccccc3)s2)cc1OC` (stereo partly drawn) [Example 17, [(1S)-2-(3,5-dichloro-1-oxido-pyridin-1-ium-4-yl)-1-(3,4-dimethoxyphenyl)ethyl] 5-[[[2-[[(3R)-1-methylpyrrolidin-3-yl]methoxy]-2-oxo-1-phenyl-ethyl]amino]methyl]thiophene-2-carboxylate], the IC50 (on Human recombinant PDE4B2 (setting [3]); in test [1] (setting [2])) was 1 to 10 nM in each case.

`COc1ccc([C@H](Cc2c(Cl)c[n+]([O-])cc2Cl)OC(=O)c2ccc(CNC(C(=O)OC[C@H]3CCN(C)C3)c3ccccc3)s2)cc1OC` (stereo partly drawn) [Example 18, [(1S)-2-(3,5-dichloro-1-oxido-pyridin-1-ium-4-yl)-1-(3,4-dimethoxyphenyl)ethyl] 5-[[[2-[[(3S)-1-methylpyrrolidin-3-yl]methoxy]-2-oxo-1-phenyl-ethyl]amino]methyl]thiophene-2-carboxylate]: the IC50 (on Human recombinant PDE4B2 (setting [3]); in test [1] (setting [2])) was 1 to 10 nM in each case.

`COc1ccc([C@H](Cc2c(Cl)c[n+]([O-])cc2Cl)OC(=O)c2ccc(CNC(C(=O)OCC3CN(C)C3)c3ccccc3)s2)cc1OC` (stereo partly drawn) [Example 25, [(1S)-2-(3,5-dichloro-1-oxido-pyridin-1-ium-4-yl)-1-(3,4-dimethoxyphenyl)ethyl] 5-[[[2-[(1-methylazetidin-3-yl)methoxy]-2-oxo-1-phenyl-ethyl]amino]methyl]thiophene-2-carboxylate]: the IC50 (on Human recombinant PDE4B2 (setting [3]); in test [1] (setting [2])) was 1 to 10 nM each time.

Consider `COc1ccc([C@H](Cc2c(Cl)c[n+]([O-])cc2Cl)OC(=O)c2ccc(CNC(C(=O)OC[C@H]3CN(C)CCN3C)c3ccccc3)s2)cc1OC` (stereo partly drawn) [Example 29, [(1S)-2-(3,5-dichloro-1-oxido-pyridin-1-ium-4-yl)-1-(3,4-dimethoxyphenyl)ethyl] 5-[[[2-[[(2R)-1,4-dimethylpiperazin-2-yl]methoxy]-2-oxo-1-phenyl-ethyl]amino]methyl]thiophene-2-carboxylate], for which the values for the concentration for half-maximal inhibition (IC50) (at Human recombinant PDE4B2 (setting [3]); in test [1] (setting [2])) were 1 to 10 nM and 10 to 100 nM, respectively.

For `COc1ccc([C@H](Cc2c(Cl)c[n+]([O-])cc2Cl)OC(=O)c2ccc(CNC(C(=O)OCC3CCCCN3C)c3ccccc3)s2)cc1OC` (stereo partly drawn) [Example 31, [(1S)-2-(3,5-dichloro-1-oxido-pyridin-1-ium-4-yl)-1-(3,4-dimethoxyphenyl)ethyl] 5-[[[2-[(1-methyl-2-piperidyl)methoxy]-2-oxo-1-phenyl-ethyl]amino]methyl]thiophene-2-carboxylate], the values for the IC50 (at Human recombinant PDE4B2 (setting [3]); in test [1] (setting [2])) were 1 to 10 nM and 10 to 100 nM, respectively.

Take `COc1ccc([C@H](Cc2c(Cl)c[n+]([O-])cc2Cl)OC(=O)c2ccc(CNC(C(=O)OC[C@@H]3CN(C)CCN3C)c3ccccc3)s2)cc1OC` (stereo partly drawn) [Example 32, [(1S)-2-(3,5-dichloro-1-oxido-pyridin-1-ium-4-yl)-1-(3,4-dimethoxyphenyl)ethyl] 5-[[[2-[[(2S)-1,4-dimethylpiperazin-2-yl]methoxy]-2-oxo-1-phenyl-ethyl]amino]methyl]thiophene-2-carboxylate]: the IC50 fell in the range of 1 to 10 nM at Human recombinant PDE4B2 (setting [3]) and 10 to 100 nM in test [1] (setting [2]).

For `COc1ccc(C(Cc2c(Cl)c[n+]([O-])cc2Cl)OC(=O)c2ccc(CNC(C(=O)OCC3CCN(C)CC3)c3cccc(O)c3)s2)cc1OCC1CC1` (centres unmarked) [Example 47, [1-[3-(cyclopropylmethoxy)-4-methoxy-phenyl]-2-(3,5-dichloro-1-oxido-pyridin-1-ium-4-yl)ethyl]5-[[[1-(3-hydroxyphenyl)-2-[(1-methyl-4-piperidyl)methoxy]-2-oxo-ethyl]amino]methyl]thiophene-2-carboxylate], the half-inhibitory concentration (IC50) (at Human recombinant PDE4B2 (setting [3]); in test [1] (setting [2])) was 1 to 10 nM each time.

On to `COc1ccc([C@H](Cc2c(Cl)c[n+]([O-])cc2Cl)OC(=O)c2ccc(CNC(C(=O)OC[C@@H]3CCCN(C)C3)c3ccccc3)s2)cc1OC` (stereo partly drawn) [Example 49, [(1S)-2-(3,5-dichloro-1-oxido-pyridin-1-ium-4-yl)-1-(3,4-dimethoxyphenyl)ethyl]5-[[[2-[[(3R)-1-methyl-3-piperidyl]methoxy]-2-oxo-1-phenyl-ethyl]amino]methyl]thiophene-2-carboxylate], for which the 50% inhibitory concentration (IC50) at Human recombinant PDE4B2 (setting [3]) was 1 to 10 nM; in test [1] (setting [2]) it was 10 to 100 nM.

Regarding `COCCOc1cc([C@H](Cc2c(Cl)c[n+]([O-])cc2Cl)OC(=O)c2ccc(CNC(C(=O)OCC3CCN(C)CC3)c3ccccc3)s2)ccc1OC(F)F` (stereo partly drawn) [Example 113, [(1S)-2-(3,5-dichloro-1-oxido-pyridin-1-ium-4-yl)-1-[4-(difluoromethoxy)-3-(2-methoxyethoxy)phenyl]ethyl] 5-[[[2-[(1-methyl-4-piperidyl)methoxy]-2-oxo-1-phenyl-ethyl]amino]methyl]thiophene-2-carboxylate], the IC50 (at Human recombinant PDE4B2 (setting [3]); in test [1] (setting [2])) was 1 to 10 nM in each case.

On to `COc1ccc([C@H](Cc2c(Cl)c[n+]([O-])cc2Cl)OC(=O)c2ccc(CNC(C(=O)OCC3C[C@H]4CC[C@@H](C3)N4C)c3ccccc3)s2)cc1OC` (stereo partly drawn) [Example 114, [(1S)-2-(3,5-dichloro-1-oxido-pyridin-1-ium-4-yl)-1-(3,4-dimethoxyphenyl)ethyl] 5-[[[2-[[(1R,5S)-8-methyl-8-azabicyclo[3.2.1]octan-3-yl]methoxy]-2-oxo-1-phenyl-ethyl]amino]methyl]thiophene-2-carboxylate], for which the IC50 at Human recombinant PDE4B2 was 1 to 10 nM; in test [1] it was 10 to 100 nM.

On to `COc1ccc([C@H](Cc2c(Cl)c[n+]([O-])cc2Cl)OC(=O)c2ccc(CNC(CO)(C(=O)OCC34CCN(CC3)CC4)c3ccccc3)s2)cc1OC` (stereo partly drawn) [Example 117, [(1S)-2-(3,5-dichloro-1-oxido-pyridin-1-ium-4-yl)-1-(3,4-dimethoxyphenyl)ethyl]5-[[[1-(hydroxymethyl)-2-oxo-1-phenyl-2-(quinuclidin-4-ylmethoxy)ethyl]amino]methyl]thiophene-2-carboxylate], for which the IC50 is 1 to 10 nM on Human recombinant PDE4B2 (setting [3]) and under 1 nM in test [1] (setting [2]).

The values above are taken from patent publication US9636336B2, “Aminoester derivatives” (CHIESI FARMACEUTICI S.p.A., priority 2015, dated 2017).
